Legend:
Zscan4 [1] = details: MC1-ZE7 cells, LIF+; H2O2 100 μM, 300 μM or 1000 μM; two days
Method: MC1-ZE7 cells were cultured in standard ES cell medium (LIF+). […] The cells were cultured for two days and the fraction of Emerald^+ (i.e., Zscan4^+ cells) was measured by flow cytometry.
MC1-ZE7 cells were cultured in standard ES cell medium (LIF+). […] The cells were cultured for two days and the percentage of Em^+ (i.e., Zscan4^+ cells) was determined by the Guava flow cytometry (Guava).

MC1-ZE7 cells = assay: Effect of retinoids on ES cell proliferation; type: cell-based, mouse; details: atRA, 9-cis RA, 13-cis RA 50 nM, vitamin A 5 μM; up to 7 days
From the text: (§1) FIG. 10A is a line graph showing the effect of different retinoids (atRA, 9-cis RA, 13-cis RA or vitamin A) on the percentage of Zscan4^+ cells in culture. Shown is the percentage of Emerald^+ MC1-ZE-7 cells up to seven days following exposure to the retinoid. FIG. 10B is a line graph showing the effect of the different reintoids on ES cell proliferation.
(§2) Although atRA is most commonly used for mammalian cell culture systems, there are other retinoids that sometimes have similar activities on the cells. To test other retinoids for Zscan4-inducibility, similar time-course kinetic assays were carried out using atRA (50 nM final concentration), 9-cis RA (50 nM final concentration), 13-cis RA (50 nM final concentration), or vitamin A (5 μM final concentration). […] Zscan4^+ cells may have growth advantages over Zscan4^− cells in the presence of vitamin A and 13-cis RA.

Zscan4 [2] = assay: Time-course of Emerald GFP+ (Zscan4+) cells by flow cytometry after retinoid treatment; type: cell-based, mouse; details: for day of peak of fraction of Zscan4+ cells / fraction of Zscan4+ cells / secondary increase of Zscan4+ cells: atRA, 9-cis RA, 13-cis RA 50 nM; for day of peak of fraction of Zscan4+ cells / secondary increase of Zscan4+ cells: vitamin A 5 μM; for fraction of Zscan4+ cells: vitamin A 5 μM final concentration, up to 7 days; for secondary increase of Zscan4+ cells: within 7 days of treatment
From the text: FIG. 9 is a line graph showing the percentage of Emerald cells following treatment of MC1-ZE7 cells in the presence or absence of leukemia inhibitory factor (LIF) and in the presence or absence of retinoic acid (RA). Cells were passaged to gelatin-coated plates in the presence of LIF (LIF+) and absence of atRA (atRA−). The next day (Day 0), the culture medium of each well was changed to four different conditions: LIF+ atRA−, LIF+ atRA+, LIF− atRA−, and LIF− atRA+. The cells were maintained in the same culture medium for 8 days with the medium changes every day, but without passaging. Cells were harvested every day and the number of Emerald GFP^+ cells was measured by flow cytometry.
as §1
A 20 mM stock solution of all-trans retinoic acid (atRA) in ethanol was used at a final concentration of 1 μM, 2 μM, or 50 nM. 9-cis RA and 13-cis RA were used at a final concentration of […] final. Vitamin A (retinol) was used at a final concentration of 5 μM.
Zscan4 Expression is Induced Transiently by all-Trans Retinoic Acid (atRA) Mouse ES cells (referred to as pZscan4-Emerald7 (MC1-ZE7) cells) in which a plasmid carrying a green fluorescent protein (Emerald: Em) regulated under the promoter of Zscan4c is integrated in the genome were used in these studies. […] Cells were first passaged to gelatin-coated plates in the presence of leukemia inhibitory factor (LIF+) and absence of atRA (atRA−). The next day (Day 0), the culture medium of each well was changed to four different conditions: LIF+ atRA−, LIF+ atRA+, LIF− atRA−, and LIF− atRA+. The final concentration of atRA was […]. The cells were maintained in the same culture medium for 8 days with medium changes every day, but without passaging. Cells were harvested every day and the number of Emerald GFP^+ cells was measured by flow cytometry (Guava).
as §2

ES cells = assay: Survival of ES cells after treatment with DNA-damaging agent (live cell count); type: cell-based, mouse; details: then 3 more days
Method: FIGS. 12A and 12B are graphs showing survival of control ES cells (A) and tet-Zscan4 ES cells (B) after treatment with mitomycin C (MMC). Control ES cells contained a control plasmid (tet-Empty). Cells were cultured in standard ES medium (LIF+) and passaged into two groups: (1) in the absence of doxycycline (Dox) or (2) in the presence of Dox at a final concentration of 0.2 μg/ml. The Dox+ and Dox− media were changed every day. On the fourth day, the cells were cultured for 6 hours in the presence of MMC at a final concentration ranging from 0 to 600 ng/ml. MMC was removed from the culture by changing the media and cells were then incubated for 3 more days in the Dox+ medium, with the medium changed every day. Cells were harvested and the number of live cells was counted.
Control cells (carrying the tet-Empty plasmid) and Zscan4-expressing cells (carrying the tet-Zscan4 plasmid) were used in this study. The cells were cultured in standard ES medium (LIF+). Cells were passaged into two groups: (1) in the absence of doxycycline (Dox−), or (2) in the presence of doxycycline (Dox+) at a final concentration of 0.2 μg/ml. The Dox+ and Dox− media were changed every day. On the fourth day, the cells were cultured for 6 hours in the presence of MMC at a final concentration ranging from 0 to 600 ng/ml. […] Cells were harvested and the number of live cells was counted.

[3] = MC1-ZE7 cells, atRA 2 M (so in the source), LIF+ and LIF-

Compound | number (percentage) of Zscan4+ (Em+) cells (Zscan4 [1]) | effect on cell proliferation (MC1-ZE7 cells) | day of peak of fraction of Zscan4+ cells (Zscan4 [2]; MC1-ZE7 cells) | fraction of Zscan4+ cells (Zscan4 [2]; MC1-ZE7 cells) | secondary increase of Zscan4+ cells (Zscan4 [2]) | survival of Zscan4-expressing (tet-Zscan4) ES cells against the DNA-damaging agent, Dox- versus Dox+ (ES cells; Zscan4 induced by Dox removal, agent for 6 hours) | cell survival rate (ES cells; control (tet-Empty) ES cells, MMC 0 to 600 ng/ml for 6 hours) | decline of Zscan4+ cell induction to basal level (Zscan4 [2]; [3]) | time of peak of Em+ (Zscan4+) cell fraction (Zscan4 [2]; [3]) | fraction of Em+ cells (i.e., Zscan4+ cells) in the culture (Zscan4 [2]; MC1-ZE7 cells, atRA 2 M (so in the source), LIF+ and LIF- conditions, 8 days, daily harvest)
OO [H2O2, Hydrogen peroxide] | increases the number of Zscan4^+ cells | – | – | – | – | – | – | – | – | –
CC1=C(/C=C/C(C)=C/C=C/C(C)=C/CO)C(C)(C)CCC1 [vitamin A, retinol] | – | did not affect cell proliferation | 2 days | transiently increased | observed | – | – | – | – | –
CO[C@@]12[C@H](COC(N)=O)C3=C(C(=O)C(C)=C(N)C3=O)N1C[C@@H]1N[C@@H]12 [MMC, mitomycin C] | – | – | – | – | – | increased survival | the higher the dose of MMC, the lower the cell survival rate | – | – | –
CC1=C(/C=C/C(C)=C/C=C/C(C)=C/C(=O)O)C(C)(C)CCC1 [atRA, all-trans retinoic acid] | – | nearly complete suppression of cell proliferation | 2 days | transiently increased | not | – | – | declined to the basal level by the fourth day | peaked on the second day | dramatically induced
CC1=C(/C=C/C(C)=C/C=C/C(C)=C\C(=O)O)C(C)(C)CCC1 [13-cis RA, 13-cis-retinoic acid] | – | moderate suppression of cell proliferation | 2 days | transiently increased | observed | – | – | – | – | –
CC1=C(/C=C/C(C)=C\C=C\C(C)=C\C(=O)O)C(C)(C)CCC1 [9-cis RA, 9-cis retinoic acid] | – | nearly complete suppression of cell proliferation | 2 days | transiently increased | not | – | – | – | – | –
